Measured values taken from ChEMBL document CHEMBL1201862, “PubChem BioAssay data set” (2004).
The source made the active and inactive calls.

Columns and labels:
[1] = molecular target: Intestinal-type alkaline phosphatase (Mus musculus, UniProt P24822); test: PubChem AID 488785; type: functional
[2] = molecular target: T1, Alkaline phosphatase, tissue-nonspecific isozyme (Homo sapiens, UniProt P05186); test: TNAP enzyme inhibition by screening hits, dose response, selectivity assay for mouse IAP inhibitor project, biochemical, human TNAP, uHTS hits (AID 488906); type: functional
T1 sequence (P05186 whole entry): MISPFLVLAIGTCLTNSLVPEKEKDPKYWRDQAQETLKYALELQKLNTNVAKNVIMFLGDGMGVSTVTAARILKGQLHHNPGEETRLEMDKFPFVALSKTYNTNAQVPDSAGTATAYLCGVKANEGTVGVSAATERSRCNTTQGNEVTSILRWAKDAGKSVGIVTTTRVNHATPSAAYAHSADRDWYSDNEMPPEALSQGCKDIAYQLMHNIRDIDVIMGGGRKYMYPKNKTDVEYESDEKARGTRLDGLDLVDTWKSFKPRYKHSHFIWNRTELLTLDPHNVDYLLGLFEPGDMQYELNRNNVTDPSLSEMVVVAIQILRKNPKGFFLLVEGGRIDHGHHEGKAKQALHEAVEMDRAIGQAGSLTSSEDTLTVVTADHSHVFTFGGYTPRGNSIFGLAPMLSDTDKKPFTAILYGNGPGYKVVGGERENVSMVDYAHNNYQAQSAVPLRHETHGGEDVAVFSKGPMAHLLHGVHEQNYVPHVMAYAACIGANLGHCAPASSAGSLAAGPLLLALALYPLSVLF

[3] = molecular target: Intestinal-type alkaline phosphatase (Homo sapiens, UniProt P09923); test: inhibition of human intestinal alkaline phosphatase – biochemical, dose response (AID 488876); type: functional
Intestinal-type alkaline phosphatase (Homo sapiens, UniProt P09923), sequence (P09923 whole entry): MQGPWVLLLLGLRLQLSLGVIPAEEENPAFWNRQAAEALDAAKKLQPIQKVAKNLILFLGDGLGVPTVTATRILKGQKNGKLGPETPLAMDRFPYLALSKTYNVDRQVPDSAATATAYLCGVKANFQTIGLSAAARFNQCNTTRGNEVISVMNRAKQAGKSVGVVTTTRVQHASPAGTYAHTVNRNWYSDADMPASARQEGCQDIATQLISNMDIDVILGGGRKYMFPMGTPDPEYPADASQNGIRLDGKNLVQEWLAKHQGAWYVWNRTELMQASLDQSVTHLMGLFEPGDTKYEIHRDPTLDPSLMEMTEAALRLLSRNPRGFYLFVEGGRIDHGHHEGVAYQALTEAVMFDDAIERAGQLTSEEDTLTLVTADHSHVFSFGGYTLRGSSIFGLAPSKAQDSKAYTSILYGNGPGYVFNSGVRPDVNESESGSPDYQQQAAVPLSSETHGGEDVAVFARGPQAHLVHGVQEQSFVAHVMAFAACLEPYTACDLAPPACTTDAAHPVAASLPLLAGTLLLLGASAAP

[4] = molecular target: Glucose-6-phosphate 1-dehydrogenase (Homo sapiens, UniProt P11413); test: inhibition of Homo sapiens G6PD, dose series – biochemical, fluorescence, selectivity assay for P. falciparum G6PD inhibitor project, dose response (AID 504792); type: functional
Glucose-6-phosphate 1-dehydrogenase, sequence (P11413 whole entry): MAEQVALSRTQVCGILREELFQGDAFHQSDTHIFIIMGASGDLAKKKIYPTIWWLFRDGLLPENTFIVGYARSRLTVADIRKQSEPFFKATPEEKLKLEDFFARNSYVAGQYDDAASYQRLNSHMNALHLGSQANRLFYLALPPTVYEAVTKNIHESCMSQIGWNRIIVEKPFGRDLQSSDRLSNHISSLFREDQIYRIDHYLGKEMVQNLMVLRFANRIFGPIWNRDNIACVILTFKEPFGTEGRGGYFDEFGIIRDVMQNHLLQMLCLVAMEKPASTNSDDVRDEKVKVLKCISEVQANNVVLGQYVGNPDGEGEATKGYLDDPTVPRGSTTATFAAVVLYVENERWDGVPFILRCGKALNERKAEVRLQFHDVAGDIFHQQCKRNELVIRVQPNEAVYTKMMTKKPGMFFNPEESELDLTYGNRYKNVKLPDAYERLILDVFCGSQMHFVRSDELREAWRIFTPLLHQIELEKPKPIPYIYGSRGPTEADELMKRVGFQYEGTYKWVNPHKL

Mu-type opioid receptor = Mu-type opioid receptor (Homo sapiens, UniProt P35372); test: (§1) Counterscreen for agonists of heterodimerization of the mu 1 (OPRM1) and delta 1 (OPRD1) opioid receptors: Luminescence-based cell-based high throughput dose response assay to identify agonists of OPRM1 homodimerization.; type: functional
Mu-type opioid receptor, sequence (P35372 whole entry): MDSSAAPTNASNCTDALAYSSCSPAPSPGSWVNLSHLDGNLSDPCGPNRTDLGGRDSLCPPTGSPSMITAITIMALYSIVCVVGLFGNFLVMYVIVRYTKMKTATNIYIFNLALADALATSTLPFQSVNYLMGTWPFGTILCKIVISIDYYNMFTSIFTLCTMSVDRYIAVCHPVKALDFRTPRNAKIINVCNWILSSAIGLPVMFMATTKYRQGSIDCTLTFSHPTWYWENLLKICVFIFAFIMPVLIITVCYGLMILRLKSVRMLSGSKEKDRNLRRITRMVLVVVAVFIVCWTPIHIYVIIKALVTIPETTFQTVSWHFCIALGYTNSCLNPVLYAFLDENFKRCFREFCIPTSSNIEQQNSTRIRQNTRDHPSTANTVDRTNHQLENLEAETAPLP

[5] = molecular target: 5-hydroxytryptamine receptor 5A (Homo sapiens, UniProt P47898); test: Counterscreen for agonists of OPRM1-OPRD1 heterodimerization: luminescence-based cell-based high throughput dose response assay to identify agonists of 5-hydroxytryptamine (serotonin) 5A receptor (HTR5A). [Related pubchem assays (depositor defined):AID504326, AID504355, AID504692, AID504904, AID504905]; type: functional
5-hydroxytryptamine receptor 5A, sequence (P47898 whole entry): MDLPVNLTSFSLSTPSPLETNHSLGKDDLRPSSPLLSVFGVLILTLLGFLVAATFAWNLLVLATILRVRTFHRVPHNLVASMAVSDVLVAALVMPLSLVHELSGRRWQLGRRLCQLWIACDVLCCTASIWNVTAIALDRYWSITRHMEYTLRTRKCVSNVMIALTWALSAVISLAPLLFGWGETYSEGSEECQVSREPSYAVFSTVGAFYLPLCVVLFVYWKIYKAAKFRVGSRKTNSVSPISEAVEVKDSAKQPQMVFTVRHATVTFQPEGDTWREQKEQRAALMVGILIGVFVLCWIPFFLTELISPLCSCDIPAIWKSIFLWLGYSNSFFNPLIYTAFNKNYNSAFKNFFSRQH

[6] = molecular target: Delta-type opioid receptor (Homo sapiens, UniProt P41143); test: as §1, with “of OPRD1” for “of OPRM1”, “homodimerization. [Related pubchem assays (depositor defined):AID504326, AID504355, AID504692, AID504904, AID504905]” for “homodimerization.”; type: functional
Delta-type opioid receptor, sequence (P41143 whole entry): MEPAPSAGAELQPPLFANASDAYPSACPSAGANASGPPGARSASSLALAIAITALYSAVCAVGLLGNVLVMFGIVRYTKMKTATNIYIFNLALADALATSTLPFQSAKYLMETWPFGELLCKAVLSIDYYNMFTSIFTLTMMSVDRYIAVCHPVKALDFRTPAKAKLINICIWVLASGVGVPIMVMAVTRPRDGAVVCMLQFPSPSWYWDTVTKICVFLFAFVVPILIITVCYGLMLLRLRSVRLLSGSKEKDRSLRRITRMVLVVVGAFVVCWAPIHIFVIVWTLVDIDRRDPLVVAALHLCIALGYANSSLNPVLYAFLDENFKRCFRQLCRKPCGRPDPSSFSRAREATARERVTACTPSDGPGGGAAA

NS3 = NS3 (Hepatitis C virus, UniProt A3EZJ3); test: PubChem AID 2173; set-up: species or system Hepacivirus hominis
NS3, sequence (A3EZJ3 whole entry): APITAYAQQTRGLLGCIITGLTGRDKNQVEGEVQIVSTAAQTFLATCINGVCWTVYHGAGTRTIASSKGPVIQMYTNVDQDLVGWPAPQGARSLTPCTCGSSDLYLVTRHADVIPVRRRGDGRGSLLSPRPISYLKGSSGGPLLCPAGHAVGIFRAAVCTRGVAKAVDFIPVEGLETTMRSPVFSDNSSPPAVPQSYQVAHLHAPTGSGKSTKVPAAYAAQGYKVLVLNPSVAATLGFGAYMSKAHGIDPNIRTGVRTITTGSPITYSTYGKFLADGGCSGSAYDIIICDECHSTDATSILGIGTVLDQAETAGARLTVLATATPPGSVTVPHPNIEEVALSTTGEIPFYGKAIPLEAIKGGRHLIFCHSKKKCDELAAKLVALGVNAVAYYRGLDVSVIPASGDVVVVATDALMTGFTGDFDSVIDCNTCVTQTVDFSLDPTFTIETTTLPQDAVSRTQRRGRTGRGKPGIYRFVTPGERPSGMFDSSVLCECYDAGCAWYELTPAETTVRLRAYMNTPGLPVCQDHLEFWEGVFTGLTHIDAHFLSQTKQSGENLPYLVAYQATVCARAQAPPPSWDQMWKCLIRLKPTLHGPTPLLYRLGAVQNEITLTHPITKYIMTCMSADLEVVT

[7] = molecular target: T2, Endoribonuclease toxin MazF (Escherichia coli K-12, UniProt P0AE70); test: substrate-only fluorescence increase artefacts – biochemical, single-stranded RNase substrate, counter-screen for MazEF activator project, dose response (AID 588502); type: functional
T2 sequence (P0AE70 whole entry): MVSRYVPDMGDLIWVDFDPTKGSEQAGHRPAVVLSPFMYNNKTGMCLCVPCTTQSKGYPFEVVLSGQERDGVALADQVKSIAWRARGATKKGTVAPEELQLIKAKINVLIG

Troponin, cardiac muscle = Troponin, cardiac muscle (Homo sapiens, UniProt P19429+P45379+P63316); test: Fluorescence-based biochemical high throughput dose response assay for activators of the calcium sensitivity of cardiac Regulated Thin Filaments (RTF). [Related pubchem assays (depositor defined):AID493008, AID493018, AID504382, AID504383]; type: protein-complex assay
[8] = molecular target: T3, Zinc finger protein mex-5 (Caenorhabditis elegans, UniProt Q9XUB2); test: potency of MEX-5 RNA-binding blockers – biochemical, C. elegans, fluorescence polarization, dose response (AID 1960)
T3 sequence (Q9XUB2 whole entry): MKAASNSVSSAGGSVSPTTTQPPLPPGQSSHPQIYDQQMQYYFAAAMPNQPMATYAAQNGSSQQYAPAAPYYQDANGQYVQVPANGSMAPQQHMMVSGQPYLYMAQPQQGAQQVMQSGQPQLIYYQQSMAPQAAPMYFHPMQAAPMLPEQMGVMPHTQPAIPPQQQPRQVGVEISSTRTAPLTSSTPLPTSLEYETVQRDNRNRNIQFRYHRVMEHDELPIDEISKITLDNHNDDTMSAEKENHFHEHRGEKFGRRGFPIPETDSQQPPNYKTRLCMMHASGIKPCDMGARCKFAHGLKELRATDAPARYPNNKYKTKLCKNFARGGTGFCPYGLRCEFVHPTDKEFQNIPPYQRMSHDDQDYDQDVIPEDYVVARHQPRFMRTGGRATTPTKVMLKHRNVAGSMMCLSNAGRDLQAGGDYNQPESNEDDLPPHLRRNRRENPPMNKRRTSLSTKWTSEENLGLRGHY

[9] = molecular target: T2, Endoribonuclease toxin MazF; test: activation of MazEF endoribonuclease cleavage – biochemical, fluorescence, single-stranded RNA substrate, uHTS hits, dose response (AID 588481); type: functional
[10] = molecular target: T4, RNA-binding protein pos-1 (Caenorhabditis elegans, UniProt G5EF15); test: disruptors of C. elegans POS-1 RNA interaction – biochemical, fluorescence polarization, dose response (AID 1964);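 further: purified POS-1 fused to maltose binding protein made in E. coli; potency of compounds blocking POS-1 binding to fluorescent RNA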
T4 sequence (G5EF15 whole entry): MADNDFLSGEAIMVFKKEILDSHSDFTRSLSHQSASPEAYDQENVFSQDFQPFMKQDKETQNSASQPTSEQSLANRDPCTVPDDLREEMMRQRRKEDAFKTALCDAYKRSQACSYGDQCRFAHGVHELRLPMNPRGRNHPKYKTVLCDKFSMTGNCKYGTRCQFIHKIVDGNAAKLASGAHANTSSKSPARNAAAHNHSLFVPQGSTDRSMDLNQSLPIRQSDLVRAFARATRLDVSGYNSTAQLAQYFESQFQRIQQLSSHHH

Large T antigen = Large T antigen (Simian virus 40, UniProt P03070); type: functional, Betapolyomavirus macacae;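 further: Confirmatory-stage PubChem screen for compounds that inhibit SV40 T antigen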
Large T antigen, sequence (P03070 whole entry): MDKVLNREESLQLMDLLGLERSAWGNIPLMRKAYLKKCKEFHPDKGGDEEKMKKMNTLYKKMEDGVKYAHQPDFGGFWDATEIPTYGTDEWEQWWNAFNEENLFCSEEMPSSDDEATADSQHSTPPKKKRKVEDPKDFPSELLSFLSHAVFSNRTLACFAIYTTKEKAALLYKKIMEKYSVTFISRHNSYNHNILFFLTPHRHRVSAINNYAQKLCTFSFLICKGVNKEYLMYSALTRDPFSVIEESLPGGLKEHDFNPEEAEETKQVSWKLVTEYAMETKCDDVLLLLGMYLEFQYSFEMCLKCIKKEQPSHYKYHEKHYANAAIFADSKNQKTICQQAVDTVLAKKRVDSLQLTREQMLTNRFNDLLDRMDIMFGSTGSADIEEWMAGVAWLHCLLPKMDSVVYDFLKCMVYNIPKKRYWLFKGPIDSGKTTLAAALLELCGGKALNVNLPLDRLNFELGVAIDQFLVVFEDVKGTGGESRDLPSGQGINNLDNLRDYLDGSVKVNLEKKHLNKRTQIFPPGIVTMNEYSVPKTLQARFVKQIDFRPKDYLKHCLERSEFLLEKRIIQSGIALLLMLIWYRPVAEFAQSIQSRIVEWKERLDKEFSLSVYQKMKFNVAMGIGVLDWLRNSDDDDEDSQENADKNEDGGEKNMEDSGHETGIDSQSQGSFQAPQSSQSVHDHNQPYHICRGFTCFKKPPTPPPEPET

[11] = molecular target: Induced myeloid leukemia cell differentiation protein Mcl-1 (Homo sapiens, UniProt Q07820); type: functional
Induced myeloid leukemia cell differentiation protein Mcl-1, sequence (Q07820 whole entry): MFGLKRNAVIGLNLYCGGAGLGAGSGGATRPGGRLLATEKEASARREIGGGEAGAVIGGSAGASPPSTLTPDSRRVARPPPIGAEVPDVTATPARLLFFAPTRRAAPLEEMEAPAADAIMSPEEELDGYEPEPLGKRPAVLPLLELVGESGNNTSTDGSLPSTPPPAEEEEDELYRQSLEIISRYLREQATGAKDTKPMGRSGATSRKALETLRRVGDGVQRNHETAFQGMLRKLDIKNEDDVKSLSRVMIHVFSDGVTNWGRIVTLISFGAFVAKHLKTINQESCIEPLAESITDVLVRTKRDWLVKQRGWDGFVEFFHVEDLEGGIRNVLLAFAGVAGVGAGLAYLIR

Intestinal-type alkaline phosphatase (Mus musculus, UniProt P24822), sequence (P24822 whole entry): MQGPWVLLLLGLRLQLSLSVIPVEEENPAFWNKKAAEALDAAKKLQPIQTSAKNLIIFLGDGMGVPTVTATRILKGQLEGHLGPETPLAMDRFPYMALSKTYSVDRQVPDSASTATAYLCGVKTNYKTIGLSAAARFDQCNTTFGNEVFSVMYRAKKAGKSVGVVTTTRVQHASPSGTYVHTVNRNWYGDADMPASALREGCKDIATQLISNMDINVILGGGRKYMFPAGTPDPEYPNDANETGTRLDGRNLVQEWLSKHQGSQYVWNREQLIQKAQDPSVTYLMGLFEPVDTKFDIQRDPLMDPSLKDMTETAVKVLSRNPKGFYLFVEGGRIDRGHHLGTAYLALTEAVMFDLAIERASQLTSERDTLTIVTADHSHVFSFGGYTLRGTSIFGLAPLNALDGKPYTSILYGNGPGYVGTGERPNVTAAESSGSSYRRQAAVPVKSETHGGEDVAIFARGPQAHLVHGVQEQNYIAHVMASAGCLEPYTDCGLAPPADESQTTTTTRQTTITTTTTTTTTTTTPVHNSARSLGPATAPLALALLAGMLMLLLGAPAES

CC(/C=C/C1(O)C(C)CC(=O)CC1(C)C)OC1OC(CO)C(O)C(O)C1O (stereo not drawn)
IC50 [1]: 9.13 µM (active)
IC50 [2]: > 100 µM (inactive)
IC50 [3]: > 100 µM (inactive)

O=C(Nc1ccc(N2CCOCC2)c(Cl)c1)c1ccc(Cl)cc1
IC50 [4]: > 80 µM (inactive)

CCOC(=O)C1(c2ccccc2)CCN(CCC(=O)Nc2ccc(F)cc2)CC1
EC50 (Mu-type opioid receptor): > 92.5 µM (inactive)
EC50 [5]: > 92.5 µM (inactive)
EC50 [6]: > 92.5 µM (inactive)

CSc1ccc(C2C(C(=O)c3ccco3)=C(O)C(=O)N2c2nnc(SC)s2)cc1 (stereo not drawn)
IC50 (NS3): 4.87 µM (active)
EC50 [7]: > 99 µM (inactive)
EC50 (Troponin, cardiac muscle): 0.279 µM (active)
EC50 [8]: 16.4 µM (active)
EC50 [9]: > 99 µM (inactive)
EC50 [10]: 6.79 µM (active)

O=C1CC(c2ccc(O)c(O)c2)Oc2c1ccc(O)c2O (stereo not drawn)
IC50 [1]: 14.8 µM (active)
IC50 (Large T antigen): 1.91 µM (active)
IC50 [2]: > 100 µM (inactive)
IC50 [3]: 24.8 µM (active)
IC50 [11]: 2.99 µM (active)
